ChEMBL document CHEMBL6177960, “Rational design, optimization, and biological evaluation of novel pyrrolo-pyridone derivatives as potent and orally active Cbl-b inhibitors” (Eur J Med Chem, 2025)
pEC50, pKi: −log10 of the molar value. Blank lines part the entries; values can stand above or below the compound they belong to.

Key:
[1] = Toxicity in female BALB/C mouse model implanted with mouse CT26 cells assessed as effect on body weight at 30 mg/kg, po administered via gavage once daily and measured after 14 days; settings: in vivo, 336 h
[2] = biological target: E3 ubiquitin-protein ligase CBL-B (Homo sapiens, UniProt Q13191); assay: Binding affinity to Cbl-b (unknown origin) assessed as inhibition constant incubated for 60 mins by TR-FRET assay
[3] = Inhibition of immunosuppressive activity in PGE2-induced human T cells assessed as increase in IFNgamma production preincubated with PGE2 for 15 mins followed by compound administration for 60 mins and measured after 48 hrs of anti-human CD28 antibody by ELISA; settings: T-cell
[4] = Inhibition of immunosuppressive activity in PGE2-induced human T cells assessed as increase in IL2 production preincubated with PGE2 for 15 mins followed by compound administration for 60 mins and measured after 48 hrs of anti-human CD28 antibody by ELISA; settings: T-cell
[5] = Inhibition of immunosuppressive activity in PGE2-induced human T cells assessed as increase in cell proliferation preincubated with PGE2 for 15 mins followed by compound administration for 60 mins and measured after 72 hrs of anti-human CD28 antibody by flow cytometric analysis
[6] = Apparent permeability across apical to basolateral side in human Caco-2 cells at 2 uM incubated for 2 hrs by LC-MS/MS analysis
[7] = Apparent permeability across basolateral to apical side in human Caco-2 cells at 2 uM incubated for 2 hrs by LC-MS/MS analysis
[8] = Apparent permeability across apical to basolateral side in human Caco-2 cells assessed as drug recovery at 2 uM incubated for 2 hrs by LC-MS/MS analysis
[9] = Apparent permeability across basolateral to apical side in human Caco-2 cells assessed as drug recovery at 2 uM incubated for 2 hrs by LC-MS/MS analysis
[10] = Metabolic stability in human hepatocytes assessed as hepatic extraction ratio at 2 uM measured up to 120 mins by LC-MS/MS analysis
[11] = Metabolic stability in monkey hepatocytes assessed as hepatic extraction ratio at 2 uM measured up to 120 mins by LC-MS/MS analysis; settings: rhesus monkey
[12] = Metabolic stability in rat hepatocytes assessed as hepatic extraction ratio at 2 uM measured up to 120 mins by LC-MS/MS analysis
[13] = Metabolic stability in dog hepatocytes assessed as hepatic extraction ratio at 2 uM measured up to 120 mins by LC-MS/MS analysis
[14] = Metabolic stability in mouse hepatocytes assessed as hepatic extraction ratio at 2 uM measured up to 120 mins by LC-MS/MS analysis
[15] = Protein binding in human plasma assessed as unbound fraction at 5 uM incubated for 5 hrs by equilibrium dialysis based LC-MS analysis
[16] = Protein binding in cynomolgus monkey plasma assessed as unbound fraction at 5 uM incubated for 5 hrs by equilibrium dialysis based LC-MS analysis
[17] = Protein binding in Beagle dog plasma assessed as unbound fraction at 5 uM incubated for 5 hrs by equilibrium dialysis based LC-MS analysis
[18] = Protein binding in Sprague-Dawley rat plasma assessed as unbound fraction at 5 uM incubated for 5 hrs by equilibrium dialysis based LC-MS analysis
[19] = Protein binding in CD-1 mouse plasma assessed as unbound fraction at 5 uM incubated for 5 hrs by equilibrium dialysis based LC-MS analysis
[20] = Plasma protein binding in human at 5 uM incubated for 5 hrs by equilibrium dialysis based LC-MS analysis
[21] = Plasma protein binding in cynomolgus monkey at 5 uM incubated for 5 hrs by equilibrium dialysis based LC-MS analysis
[22] = Plasma protein binding in Beagle dog at 5 uM incubated for 5 hrs by equilibrium dialysis based LC-MS analysis
[23] = Plasma protein binding in Sprague-Dawley rat at 5 uM incubated for 5 hrs by equilibrium dialysis based LC-MS analysis
[24] = Plasma protein binding in CD-1 mouse at 5 uM incubated for 5 hrs by equilibrium dialysis based LC-MS analysis
[25] = mouse, in vivo, iv, 1 mg/kg, 24 h
[26] = mouse, in vivo, po, 10 mg/kg, 24 h
[27] = human, hepatocytes, 2 h, 2 µM
[28] = rhesus monkey, hepatocytes, 2 h, 2 µM
[29] = rat, hepatocytes, 2 h, 2 µM
[30] = mouse, hepatocytes, 2 h, 2 µM
in vivo [31] = settings: male, CD-1(ICR), mouse, iv, 1 mg/kg
Description: Half-life in male CD-1(ICR) mouse at 1 mg/kg, iv measured after 1440 mins by LC-MS/MS analysis

in vivo [32] = settings: male, CD-1(ICR), mouse, iv, 1 mg/kg; remark: listed apart in the source
Description: C0 in male CD-1(ICR) mouse at 1 mg/kg, iv measured after 1440 mins by LC-MS/MS analysis

in vivo [33] = settings: male, CD-1(ICR), mouse, iv, 1 mg/kg; remark: listed apart in the source
Description: AUClast in male CD-1(ICR) mouse at 1 mg/kg, iv measured after 1440 mins by LC-MS/MS analysis

in vivo [34] = settings: male, CD-1(ICR), mouse, iv, 1 mg/kg; remark: listed apart in the source
Description: AUCinfinity in male CD-1(ICR) mouse at 1 mg/kg, iv measured after 1440 mins by LC-MS/MS analysis

in vivo [35] = settings: male, CD-1(ICR), mouse, iv, 1 mg/kg; remark: listed apart in the source
Description: MRTinfinity in male CD-1(ICR) mouse at 1 mg/kg, iv measured after 1440 mins by LC-MS/MS analysis

in vivo [36] = settings: male, CD-1(ICR), mouse, iv, 1 mg/kg; remark: listed apart in the source
Description: Apparent volume of distribution in male CD-1(ICR) mouse at 1 mg/kg, iv measured after 1440 mins by LC-MS/MS analysis

in vivo [37] = settings: male, CD-1(ICR), mouse, iv, 1 mg/kg; remark: listed apart in the source
Description: Volume of distribution at steady state in male CD-1(ICR) mouse at 1 mg/kg, iv measured after 1440 mins by LC-MS/MS analysis

in vivo [38] = settings: male, CD-1(ICR), mouse, iv, 1 mg/kg; remark: listed apart in the source
Description: Clearance in male CD-1(ICR) mouse at 1 mg/kg, iv measured after 1440 mins by LC-MS/MS analysis

in vivo [39] = settings: male, CD-1(ICR), mouse, po, 10 mg/kg
Description: Half-life in male CD-1(ICR) mouse at 10 mg/kg, po measured after 1440 mins by LC-MS/MS analysis

in vivo [40] = settings: male, CD-1(ICR), mouse, po, 10 mg/kg; remark: listed apart in the source
in vivo [41] = settings: male, CD-1(ICR), mouse, po, 10 mg/kg; remark: listed apart in the source
in vivo [42] = settings: male, CD-1(ICR), mouse, po, 10 mg/kg; remark: listed apart in the source
Description: AUClast in male CD-1(ICR) mouse at 10 mg/kg, po measured after 1440 mins by LC-MS/MS analysis

in vivo [43] = settings: male, CD-1(ICR), mouse, po, 10 mg/kg; remark: listed apart in the source
Description: AUCinfinity in male CD-1(ICR) mouse at 10 mg/kg, po measured after 1440 mins by LC-MS/MS analysis

in vivo [44] = settings: male, CD-1(ICR), mouse, po, 10 mg/kg; remark: listed apart in the source
Description: MRTinfinity in male CD-1(ICR) mouse at 10 mg/kg, po measured after 1440 mins by LC-MS/MS analysis

in vivo [45] = settings: male, CD-1(ICR), mouse, po, 10 mg/kg; remark: listed apart in the source
in vitro [46] = settings: human, Caco-2
in vitro [47] = settings: human, hepatocytes
in vitro [48] = settings: rhesus monkey, hepatocytes
in vitro [49] = settings: rat, hepatocytes
in vitro [50] = settings: dog, hepatocytes
in vitro [51] = settings: dog, hepatocytes; remark: listed apart in the source
in vitro [52] = settings: mouse, hepatocytes
CT26 = assay: Antitumor activity against mouse CT26 cells implanted in female BALB/C mouse model assessed as tumor growth inhibition at 50 mg/kg, po administered via gavage once daily and measured after 14 days relative to control; settings: 336 h, read-out: TGI

Chain of E3 ubiquitin-protein ligase CBL-B (Q13191 whole entry): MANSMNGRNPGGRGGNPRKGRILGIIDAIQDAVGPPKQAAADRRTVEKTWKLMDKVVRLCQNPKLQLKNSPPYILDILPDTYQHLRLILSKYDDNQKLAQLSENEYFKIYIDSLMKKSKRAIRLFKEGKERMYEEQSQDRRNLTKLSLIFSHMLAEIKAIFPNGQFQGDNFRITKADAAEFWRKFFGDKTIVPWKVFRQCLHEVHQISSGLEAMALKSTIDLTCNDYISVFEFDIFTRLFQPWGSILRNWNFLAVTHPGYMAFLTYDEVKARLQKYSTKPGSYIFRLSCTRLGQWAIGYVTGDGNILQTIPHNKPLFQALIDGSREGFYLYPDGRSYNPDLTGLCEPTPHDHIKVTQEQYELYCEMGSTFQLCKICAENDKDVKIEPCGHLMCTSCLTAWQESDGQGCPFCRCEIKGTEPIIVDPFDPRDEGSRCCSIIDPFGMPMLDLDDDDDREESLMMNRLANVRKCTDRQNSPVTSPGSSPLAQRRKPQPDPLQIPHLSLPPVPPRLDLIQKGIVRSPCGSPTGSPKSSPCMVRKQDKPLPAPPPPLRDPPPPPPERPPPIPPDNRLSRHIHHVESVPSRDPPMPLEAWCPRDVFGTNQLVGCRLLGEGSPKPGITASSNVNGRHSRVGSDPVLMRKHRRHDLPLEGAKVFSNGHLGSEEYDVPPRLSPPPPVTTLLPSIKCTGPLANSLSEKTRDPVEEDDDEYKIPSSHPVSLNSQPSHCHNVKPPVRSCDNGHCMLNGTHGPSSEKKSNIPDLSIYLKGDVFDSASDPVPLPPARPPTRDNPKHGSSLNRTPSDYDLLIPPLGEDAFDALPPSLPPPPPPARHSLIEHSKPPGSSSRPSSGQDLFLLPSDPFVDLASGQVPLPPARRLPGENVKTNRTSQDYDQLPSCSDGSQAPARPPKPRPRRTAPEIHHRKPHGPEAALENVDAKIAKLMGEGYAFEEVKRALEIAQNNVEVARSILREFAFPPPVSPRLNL

- pKi [2]: 8.74
- pEC50 [3]: 6.05
- pEC50 [4]: 6.05
- Papp A→B at 2 h, 2 µM [6]: 1.98 ×10⁻⁶ cm/s
- Papp B→A at 2 h, 2 µM [7]: 35.8 ×10⁻⁶ cm/s
- recovery at 2 h, 2 µM [8]: 101%
- recovery at 2 h, 2 µM [9]: 81.3%
- hepatic extraction ratio at 2 h, 2 µM [10]: 0.7
- hepatic extraction ratio at 2 h, 2 µM [11]: 0.9
- hepatic extraction ratio at 2 h, 2 µM [12]: 0.8
- hepatic extraction ratio at 2 h, 2 µM [13]: 0.9
- hepatic extraction ratio at 2 h, 2 µM [14]: 0.9
- fraction unbound at 5 h, 5 µM [15]: 0.0522
- fraction unbound at 5 h, 5 µM [16]: 0.044
- fraction unbound at 5 h, 5 µM [17]: 0.078
- fraction unbound at 5 h, 5 µM [18]: 0.0736
- fraction unbound at 5 h, 5 µM [19]: 0.0434
- fraction unbound at 5 h, 5 µM [20]: 0.0522
- fraction unbound at 5 h, 5 µM [21]: 0.044
- fraction unbound at 5 h, 5 µM [22]: 0.078
- fraction unbound at 5 h, 5 µM [23]: 0.0736
- fraction unbound at 5 h, 5 µM [24]: 0.0434
- %AUCextra [25]: 1.18%
- %AUCextra [26]: 4.76%
- CLH [27]: 14.3 mL/min/kg
- CLH [28]: 37.5 mL/min/kg
- CLH [29]: 25.2 mL/min/kg
- CLH [30]: 79.8 mL/min/kg
- half-life at 24 h (in vivo [31]): 18.6 min
- C0 at 24 h (in vivo [32]): 572 ng/mL
- AUC(0-t) at 24 h (in vivo [33]): 277 ng·h/mL
- AUC(0-inf) at 24 h (in vivo [34]): 281 ng·h/mL
- MRT inf at 24 h (in vivo [35]): 26.4 min
- Vd at 24 h (in vivo [36]): 1.62 L/kg
- Vd at 24 h (in vivo [37]): 1.55 L/kg
- clearance at 24 h (in vivo [38]): 59.7 mL/min/kg
- half-life at 24 h (in vivo [39]): 161 min
- Tmax at 24 h (in vivo [40]): 19.8 min
- Cmax at 24 h (in vivo [41]): 629 ng/mL
- AUC(0-t) at 24 h (in vivo [42]): 661 ng·h/mL
- AUC(0-inf) at 24 h (in vivo [43]): 690 ng·h/mL
- MRT inf at 24 h (in vivo [44]): 103 min
- bioavailability at 24 h (in vivo [45]): 24.6%
- efflux ratio at 2 h, 2 µM (in vitro [46]): 18
- half-life at 2 h, 2 µM (in vitro [47]): 46 min
- half-life at 2 h, 2 µM (in vitro [48]): 9.3 min
- half-life at 2 h, 2 µM (in vitro [49]): 39.3 min
- half-life at 2 h, 2 µM (in vitro [50]): 5.2 min
- CLint scaled at 2 h, 2 µM (in vitro [51]): 50.8 mL/min/kg
- half-life at 2 h, 2 µM (in vitro [52]): 10.4 min
Structure (SMILES): C[C@H]1CCCN(Cc2cc3c(c(C(F)(F)F)c2)CN(c2cccc([C@]4(c5nncn5C)C[C@@H](C)C4)c2)C3=O)C1
- Activity [1]: Non-toxic
- pEC50 [5]: 7.57

- pKi [2]: 8.54
Structure (SMILES): CCN(Cc1cc2c(C(F)(F)F)cn(-c3cccc(C4(c5nncn5C)CCC4)c3)c(=O)c2[nH]1)CC(C)C

- pKi [2]: 8.85
Structure (SMILES): CO[C@H]1C[C@@](c2cccc(-n3cc(C(F)(F)F)c4cc(CNC5(C)CCC5)[nH]c4c3=O)c2)(c2nncn2C)C1

- pKi [2]: 8.74
Structure (SMILES): Cn1cnnc1C1(c2cccc(-n3cc(C(F)(F)F)c4cc(CN5CCCC6(CC6)C5)[nH]c4c3=O)c2)CCC1

- pKi [2]: 8.70
Structure (SMILES): Cn1cnnc1C1(c2cccc(-n3cc(C(F)(F)F)c4cc(CN5CCC[C@H]6C[C@H]65)[nH]c4c3=O)c2)CCC1

- pKi [2]: 9.07
Structure (SMILES): Cn1cnnc1[C@]1(c2cccc(-n3cc(C(F)(F)F)c4cc(CNC5(C)CCC5)[nH]c4c3=O)c2)C[C@H](C)C1

- pKi [2]: 8.88
Structure (SMILES): Cn1cnnc1[C@]1(c2cccc(-n3cc(C(F)(F)F)c4cc(CN5CCCC6(CC6)C5)[nH]c4c3=O)c2)C[C@H](C)C1

- pKi [2]: 8.64
Structure (SMILES): CO[C@H]1C[C@@](c2cccc(-n3cc(C(F)(F)F)c4cc(CN5CCCC6(CC6)C5)[nH]c4c3=O)c2)(c2nncn2C)C1

- pKi [2]: 8.80
Structure (SMILES): CCN(Cc1cc2c(C(F)(F)F)cn(-c3cccc([C@]4(c5nncn5C)C[C@@H](C)C4)c3)c(=O)c2[nH]1)CC(C)C

- pKi [2]: 8.63
Structure (SMILES): CO[C@H]1C[C@](c2cccc(-n3cc(C(F)(F)F)c4cc(CNC5(C)CCC5)[nH]c4c3=O)c2)(c2nncn2C)C1

- %AUCextra [25]: 1.18%
- %AUCextra [26]: 14.2%
- half-life at 24 h (in vivo [31]): 40.8 min
- C0 at 24 h (in vivo [32]): 395 ng/mL
- AUC(0-t) at 24 h (in vivo [33]): 202 ng·h/mL
- AUC(0-inf) at 24 h (in vivo [34]): 205 ng·h/mL
- MRT inf at 24 h (in vivo [35]): 39.6 min
- Vd at 24 h (in vivo [36]): 4.82 L/kg
- Vd at 24 h (in vivo [37]): 3.19 L/kg
- clearance at 24 h (in vivo [38]): 82.1 mL/min/kg
- half-life at 24 h (in vivo [39]): 140 min
- Tmax at 24 h (in vivo [40]): 120 min
- Cmax at 24 h (in vivo [41]): 77.9 ng/mL
- AUC(0-t) at 24 h (in vivo [42]): 243 ng·h/mL
- AUC(0-inf) at 24 h (in vivo [43]): 293 ng·h/mL
- MRT inf at 24 h (in vivo [44]): 253 min
- bioavailability at 24 h (in vivo [45]): 27.2%
Structure (SMILES): C[C@H]1CCCN(Cc2cc3c(C4CC4)cn(-c4cccc([C@]5(c6nncn6C)C[C@@H](C)C5)c4)c(=O)c3[nH]2)C1
- inhibition in vivo at 50 mg/kg (CT26): 51%

- pKi [2]: 9.07
Structure (SMILES): Cn1cnnc1[C@]1(c2cccc(-n3cc(C(F)(F)F)c4cc(CN5CC6CC6C5)[nH]c4c3=O)c2)C[C@H](C)C1 (stereo partly specified)

- pKi [2]: 9.01
Structure (SMILES): CCN(CC)Cc1cc2c(C(F)(F)F)cn(-c3cccc([C@]4(c5nncn5C)C[C@@H](C)C4)c3)c(=O)c2[nH]1
